Article PMC11172375, “Preclinical Evaluation of Biodistribution and Toxicity of [^211At]PSMA-5 in Mice and Primates for the Targeted Alpha Therapy against Prostate Cancer” (International Journal of Molecular Sciences, 2024)
Entries after “also recorded” stand apart in the source; their conditions may differ.

Assays:
[1] = Extended single-dose toxicity study in mice: general condition, body weight, organ weight; assay type: in vivo, ICR mice; settings: for testes organ weight: day 14
Protocol: This study was conducted in compliance with the Animal Experiment Regulations and the Act on Welfare and Management of Animals of the Osaka University Graduate School of Medicine (approval numbers: 04-070 and 04-094). Normal male ICR mice (n = 85, 5–6 weeks old, body weight: 29.4 ± 2.3 g) and cynomolgus monkey (n = 2, body weight: 2.10 and 2.05 kg) were purchased from Japan SLC Inc. (Hamamatsu, Japan) and Hamri Co., Ltd. (Ibaraki, Japan), respectively. The animals were housed under a 12 h light/12 h dark cycle. General condition and body weight were monitored.
(§1) [^211At]PSMA-5 was administered intravenously to 25 mice, and its biodistribution was evaluated. For the toxicity study, three doses of [^211At]PSMA-5 (5, 12, and 35 MBq/kg, single dose) or saline were intravenously administered to 10 mice/group for the main evaluation point on day 1, and 5-mice/group for recovery evaluation on day 14, adhering to the ICH M3 (R2) guidelines. The dosage was determined based on our previous study using [^211At]NaAt. The monkeys were monitored for 24 h post-administration of [^211At]PSMA-5 (9 MBq/kg).
(§2) The brain, salivary gland, thyroid, heart, lungs, liver, kidney, adrenal gland, pancreas, spleen, thymus, stomach, small intestine, large intestine, bladder, prostate, and testes were collected on days 1 or 14 in mice and at 24 h in monkeys. Additionally, the pituitary gland, tongue, trachea, esophagus, mesenteric lymph nodes, epididymis, seminal vesicles, skin, mammary glands, spinal cord, bone, bone marrow (femur), eyeball, and optic nerve were collected from the mice. After fixation, paraffin sections were prepared and stained with hematoxylin and eosin (HE). All the specimens were evaluated by an expert in toxic pathology using an integrated fluorescence microscope (BZ-X810; Keyence Corporation. Osaka, Japan). In mice, the brain, salivary glands, heart, lungs, liver, gallbladder, spleen, kidneys, and testes were weighed according to ICH S4 guideline.

[2] = Blood chemistry examination in mice; assay type: in vivo, ICR mice
Protocol: as §1
A blood cell counter was used for the measurements (CB-1010; ARKRAY, Inc., Kyoto, Japan). Red blood cell count (RBC), hemoglobin concentration (Hb), hematocrit (Ht), white blood cell count (WBC), platelet count (platelet), lymphocytes (%Lymph), monocytes (%Mon), and granulocytes (%Gra) were calculated. Plasma was analyzed using a dry clinical chemistry analyzer (Spotchem D-00 QR D-02; ARKRAY, Inc., Kyoto, Japan). The levels of aspartate aminotransferase (AST), alanine aminotransferase (ALT), gamma-glutamyl transpeptidase (γ-GTP), lactate dehydrogenase (LDH), alkaline phosphatase (ALP), creatine kinase (CK), amylase (AMY), total bilirubin (TBIL), creatinine (CRE), urea nitrogen (BUN), glucose (GLU), total protein (TP), albumin (ALB), total cholesterol (TCHO), triglyceride (TG), and electrolytes (Na, K, and Cl) were measured.

[3] = Histological evaluation in monkeys; assay type: in vivo, cynomolgus monkeys; settings: 9 MBq/kg, 24 h
Protocol: as §1, §2

O=C(O)CC[C@H](NC(=O)N[C@@H](CCCCNC(=O)[C@@H](Cc1ccc2ccccc2c1)NC(=O)c1ccc(CNC(=O)[C@@H](CCC(=O)O)NC(=O)[C@@H](CCC(=O)O)NC(=O)Cc2ccc([211At])cc2)cc1)C(=O)O)C(=O)O [[^211At]PSMA-5]
STD10 in human after body surface area conversion ([1]; converted from mice): > 2.8 MBq/kg | body weight compared to the control ([1]; mice, 12 MBq/kg, day 5): significant decrease in body weight | testes organ weight ([1]; mice, 12 MBq/kg): 0.18 ± 0.02 g | body weight compared to the control ([1]; mice, 35 MBq/kg, day 10): significant decrease in body weight | testes organ weight ([1]; mice, 35 MBq/kg): 0.17 ± 0.003 g | severe toxicity or death ([1]; mice, highest dose 35 MBq/kg, 14-day observation): No severe toxicity or death was observed; also recorded: no severe toxicity | STD10 (dose that causes severe toxicity in 10% of test animals) ([1]; mice, single i.v. dose): exceed 35 MBq/kg | ALB ([2]; 5 MBq/kg i.v., day 1): 2.3 ± 0.2 g/dL | ALP ([2]; 5 MBq/kg i.v., day 1): 194 ± 86 IU/L | ALT ([2]; 5 MBq/kg i.v., day 1): 41.2 ± 31.6 IU/L | AMY ([2]; 5 MBq/kg i.v., day 1): 2675 ± 562 IU/L | AST ([2]; 5 MBq/kg i.v., day 1): 43.8 ± 30.3 IU/L | BUN ([2]; 5 MBq/kg i.v., day 1): 22 ± 8.3 mg/dL | CK ([2]; 5 MBq/kg i.v., day 1): 180 ± 60 IU/L | CRE ([2]; 5 MBq/kg i.v., day 1): 0.2 ± 0 mg/dL | GLU ([2]; 5 MBq/kg i.v., day 1): 198 ± 70 mg/dL | K ([2]; 5 MBq/kg i.v., day 1): 4.5 ± 0.5 mEq/L | LDH ([2]; 5 MBq/kg i.v., day 1): 641 ± 281 IU/L | Na ([2]; 5 MBq/kg i.v., day 1): 141 ± 2.5 mEq/L | TBIL ([2]; 5 MBq/kg i.v., day 1): 0.6 ± 0.22 mg/dL | TCHO ([2]; 5 MBq/kg i.v., day 1): 130 ± 20 mg/dL | TG ([2]; 5 MBq/kg i.v., day 1): 112 ± 75 mg/dL | TP ([2]; 5 MBq/kg i.v., day 1): 4.1 ± 0.4 g/dL | γ-GTP ([2]; 5 MBq/kg i.v., day 1): 10 ± 0 IU/L | ALB ([2]; 5 MBq/kg i.v., day 14): 2.2 ± 0.1 g/dL | ALP ([2]; 5 MBq/kg i.v., day 14): 171 ± 36 IU/L | ALT ([2]; 5 MBq/kg i.v., day 14): 16.5 ± 4.9 IU/L | AMY ([2]; 5 MBq/kg i.v., day 14): 2200 ± 428 IU/L | AST ([2]; 5 MBq/kg i.v., day 14): 45 ± 22.7 IU/L | BUN ([2]; 5 MBq/kg i.v., day 14): 27.6 ± 1.1 mg/dL | CK ([2]; 5 MBq/kg i.v., day 14): 162 ± 91 IU/L | CRE ([2]; 5 MBq/kg i.v., day 14): 0.2 ± 0 mg/dL | GLU ([2]; 5 MBq/kg i.v., day 14): 146 ± 39 mg/dL | K ([2]; 5 MBq/kg i.v., day 14): 5.1 ± 1.2 mEq/L | LDH ([2]; 5 MBq/kg i.v., day 14): 611 ± 24 IU/L | Na ([2]; 5 MBq/kg i.v., day 14): 143 ± 1.9 mEq/L | TBIL ([2]; 5 MBq/kg i.v., day 14): 0.88 ± 0.16 mg/dL | TCHO ([2]; 5 MBq/kg i.v., day 14): 151 ± 18 mg/dL | TG ([2]; 5 MBq/kg i.v., day 14): 75 ± 17 mg/dL | TP ([2]; 5 MBq/kg i.v., day 14): 4.1 ± 0.5 g/dL | γ-GTP ([2]; 5 MBq/kg i.v., day 14): 10 ± 0 IU/L | ALB ([2]; 12 MBq/kg i.v., day 1): 2.3 ± 0.2 g/dL | ALP ([2]; 12 MBq/kg i.v., day 1): 193 ± 100 IU/L | ALT ([2]; 12 MBq/kg i.v., day 1): 29.0 ± 5.8 IU/L | AMY ([2]; 12 MBq/kg i.v., day 1): 2666 ± 537 IU/L | AST ([2]; 12 MBq/kg i.v., day 1): 37 ± 11.5 IU/L | BUN ([2]; 12 MBq/kg i.v., day 1): 20.7 ± 8.3 mg/dL | CK ([2]; 12 MBq/kg i.v., day 1): 192 ± 50 IU/L | CRE ([2]; 12 MBq/kg i.v., day 1): 0.2 ± 0 mg/dL | GLU ([2]; 12 MBq/kg i.v., day 1): 185 ± 42 mg/dL | K ([2]; 12 MBq/kg i.v., day 1): 4.5 ± 0.3 mEq/L | LDH ([2]; 12 MBq/kg i.v., day 1): 736 ± 363 IU/L | Na ([2]; 12 MBq/kg i.v., day 1): 142 ± 2.0 mEq/L | TBIL ([2]; 12 MBq/kg i.v., day 1): 0.53 ± 0.16 mg/dL | TCHO ([2]; 12 MBq/kg i.v., day 1): 128 ± 20 mg/dL | TG ([2]; 12 MBq/kg i.v., day 1): 119 ± 75 mg/dL | TP ([2]; 12 MBq/kg i.v., day 1): 4.1 ± 0.3 g/dL | γ-GTP ([2]; 12 MBq/kg i.v., day 1): 10 ± 0 IU/L | ALB ([2]; 12 MBq/kg i.v., day 14): 2.1 ± 0.3 g/dL | ALP ([2]; 12 MBq/kg i.v., day 14): 110 ± 59 IU/L | ALT ([2]; 12 MBq/kg i.v., day 14): 21.5 ± 0.7 IU/L | AMY ([2]; 12 MBq/kg i.v., day 14): 2514 ± 549 IU/L | AST ([2]; 12 MBq/kg i.v., day 14): 28.8 ± 15.4 IU/L | BUN ([2]; 12 MBq/kg i.v., day 14): 30.6 ± 6.1 mg/dL | CK ([2]; 12 MBq/kg i.v., day 14): 144 ± 26 IU/L | CRE ([2]; 12 MBq/kg i.v., day 14): 0.22 ± 0.04 mg/dL | GLU ([2]; 12 MBq/kg i.v., day 14): 148 ± 24 mg/dL | K ([2]; 12 MBq/kg i.v., day 14): 5.4 ± 0.8 mEq/L | LDH ([2]; 12 MBq/kg i.v., day 14): 456 ± 72 IU/L | Na ([2]; 12 MBq/kg i.v., day 14): 143 ± 2.8 mEq/L | TBIL ([2]; 12 MBq/kg i.v., day 14): 0.68 ± 0.13 mg/dL | TCHO ([2]; 12 MBq/kg i.v., day 14): 138 ± 20 mg/dL | TG ([2]; 12 MBq/kg i.v., day 14): 87 ± 42 mg/dL | TP ([2]; 12 MBq/kg i.v., day 14): 3.9 ± 0.4 g/dL | γ-GTP ([2]; 12 MBq/kg i.v., day 14): 10 ± 0 IU/L | ALB ([2]; 35 MBq/kg i.v., day 1): 2.2 ± 0.1 g/dL | ALP ([2]; 35 MBq/kg i.v., day 1): 208 ± 67 IU/L | ALT ([2]; 35 MBq/kg i.v., day 1): 53.0 ± 10.3 IU/L | AMY ([2]; 35 MBq/kg i.v., day 1): 2795 ± 363 IU/L | BUN ([2]; 35 MBq/kg i.v., day 1): 19.6 ± 6.2 mg/dL | CK ([2]; 35 MBq/kg i.v., day 1): 170 ± 65 IU/L | CRE ([2]; 35 MBq/kg i.v., day 1): 0.2 ± 0 mg/dL | GLU ([2]; 35 MBq/kg i.v., day 1): 201 ± 31 mg/dL | K ([2]; 35 MBq/kg i.v., day 1): 5.1 ± 0.5 mEq/L | LDH ([2]; 35 MBq/kg i.v., day 1): 638 ± 385 IU/L | Na ([2]; 35 MBq/kg i.v., day 1): 140 ± 1.4 mEq/L | TBIL ([2]; 35 MBq/kg i.v., day 1): 0.71 ± 0.48 mg/dL | TCHO ([2]; 35 MBq/kg i.v., day 1): 129 ± 21 mg/dL | TG ([2]; 35 MBq/kg i.v., day 1): 122 ± 79 mg/dL | TP ([2]; 35 MBq/kg i.v., day 1): 4.0 ± 0.3 g/dL | γ-GTP ([2]; 35 MBq/kg i.v., day 1): 10 ± 0 IU/L | AST ([2]; 35 MBq/kg i.v., day 1, hemolysis was observed): 51.5 ± 36.2 IU/L | ALB ([2]; 35 MBq/kg i.v., day 14): 2.3 ± 0.1 g/dL | ALP ([2]; 35 MBq/kg i.v., day 14): 133 ± 46 IU/L | ALT ([2]; 35 MBq/kg i.v., day 14): 13.0 ± 0.0 IU/L | AMY ([2]; 35 MBq/kg i.v., day 14): 2678 ± 388 IU/L | AST ([2]; 35 MBq/kg i.v., day 14): 28.4 ± 9.9 IU/L | BUN ([2]; 35 MBq/kg i.v., day 14): 23.4 ± 3.4 mg/dL | CK ([2]; 35 MBq/kg i.v., day 14): 141 ± 18 IU/L | CRE ([2]; 35 MBq/kg i.v., day 14): 0.2 ± 0 mg/dL | GLU ([2]; 35 MBq/kg i.v., day 14): 141 ± 21 mg/dL | K ([2]; 35 MBq/kg i.v., day 14): 4.7 ± 0.6 mEq/L | LDH ([2]; 35 MBq/kg i.v., day 14): 538 ± 129 IU/L | Na ([2]; 35 MBq/kg i.v., day 14): 143 ± 2.6 mEq/L | TBIL ([2]; 35 MBq/kg i.v., day 14): 0.68 ± 0.33 mg/dL | TCHO ([2]; 35 MBq/kg i.v., day 14): 144 ± 15 mg/dL | TG ([2]; 35 MBq/kg i.v., day 14): 67 ± 18 mg/dL | TP ([2]; 35 MBq/kg i.v., day 14): 4.1 ± 0.2 g/dL | γ-GTP ([2]; 35 MBq/kg i.v., day 14): 10 ± 0 IU/L | administration-related pathology in brain, salivary glands, thyroid, heart, liver, gallbladder, pancreas, rectum, kidney, bladder, adrenal glands, prostate [3]: No pathological abnormalities | crypt epithelial cells of the small and large (cecum) intestines [3]: Mild single-cell necrosis/apoptosis | tingible body macrophages in white pulp of the spleen, intraparotid and intrapulmonary lymph nodes [3]: mild increase
